From patent US11767322B2 (BRISTOL-MYERS SQUIBB COMPANY, priority 2020, dated 2023) come the findings set out here.

For assay [1], the target named is GST-tagged PIK3Cδ in complex with PIK3R1 (Homo sapiens, UniProt O00329). Description: PI3Kδ HTRF binding assay. The note with it: HTRF probe displacement, 1 h at rt; read-out: PIK3CD IC50.
Assay [2] relates to MLKL phosphorylation in HT29-L23 human colorectal adenocarcinoma cells. Description: MLKL phosphorylation high-content assay. Type of assay: cell-based. The note with it: 6 h, necroptosis induced with TNFα, SMAC mimetic and Z-VAD, 6 h, maximal inhibition defined by Nec1s.
Assay [3] has as its target T1, His-GST-TVMV-hRIPK1(1-324) (Homo sapiens, UniProt Q13546).
T1 construct: The coding region of human RIPK1(1-324) flanked by NdeI site at 5′ end; made in house; host or cells: Spodoptera frugiperda Sf9 insect cells (baculovirus, Bac-to-Bac)
T1 sequence (Q13546 1-324): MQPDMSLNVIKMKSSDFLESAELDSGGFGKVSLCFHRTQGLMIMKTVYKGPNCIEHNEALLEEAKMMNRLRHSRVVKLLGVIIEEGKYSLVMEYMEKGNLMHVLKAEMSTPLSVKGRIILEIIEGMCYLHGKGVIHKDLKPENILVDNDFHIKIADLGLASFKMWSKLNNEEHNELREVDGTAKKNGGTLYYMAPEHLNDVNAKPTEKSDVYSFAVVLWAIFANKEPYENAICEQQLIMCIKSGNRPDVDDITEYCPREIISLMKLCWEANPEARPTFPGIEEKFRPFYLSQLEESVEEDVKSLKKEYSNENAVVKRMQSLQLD
In words: biochemical. As to conditions: HTRF probe displacement, 1 h at rt; read-out: RIPK1 IC50. The format is binding.

Where [4] appears, read: Homo sapiens, read-out: pMLKL IC50, HT29-L23 cells.
Setting [5] is: read-out: pMLKL IC50, HT29-L23 cells.

pIC50: −log10 of the molar value. Read-outs that look alike come from different tables or passages of the source.

Chain of GST-tagged PIK3Cδ in complex with PIK3R1 (O00329 whole entry): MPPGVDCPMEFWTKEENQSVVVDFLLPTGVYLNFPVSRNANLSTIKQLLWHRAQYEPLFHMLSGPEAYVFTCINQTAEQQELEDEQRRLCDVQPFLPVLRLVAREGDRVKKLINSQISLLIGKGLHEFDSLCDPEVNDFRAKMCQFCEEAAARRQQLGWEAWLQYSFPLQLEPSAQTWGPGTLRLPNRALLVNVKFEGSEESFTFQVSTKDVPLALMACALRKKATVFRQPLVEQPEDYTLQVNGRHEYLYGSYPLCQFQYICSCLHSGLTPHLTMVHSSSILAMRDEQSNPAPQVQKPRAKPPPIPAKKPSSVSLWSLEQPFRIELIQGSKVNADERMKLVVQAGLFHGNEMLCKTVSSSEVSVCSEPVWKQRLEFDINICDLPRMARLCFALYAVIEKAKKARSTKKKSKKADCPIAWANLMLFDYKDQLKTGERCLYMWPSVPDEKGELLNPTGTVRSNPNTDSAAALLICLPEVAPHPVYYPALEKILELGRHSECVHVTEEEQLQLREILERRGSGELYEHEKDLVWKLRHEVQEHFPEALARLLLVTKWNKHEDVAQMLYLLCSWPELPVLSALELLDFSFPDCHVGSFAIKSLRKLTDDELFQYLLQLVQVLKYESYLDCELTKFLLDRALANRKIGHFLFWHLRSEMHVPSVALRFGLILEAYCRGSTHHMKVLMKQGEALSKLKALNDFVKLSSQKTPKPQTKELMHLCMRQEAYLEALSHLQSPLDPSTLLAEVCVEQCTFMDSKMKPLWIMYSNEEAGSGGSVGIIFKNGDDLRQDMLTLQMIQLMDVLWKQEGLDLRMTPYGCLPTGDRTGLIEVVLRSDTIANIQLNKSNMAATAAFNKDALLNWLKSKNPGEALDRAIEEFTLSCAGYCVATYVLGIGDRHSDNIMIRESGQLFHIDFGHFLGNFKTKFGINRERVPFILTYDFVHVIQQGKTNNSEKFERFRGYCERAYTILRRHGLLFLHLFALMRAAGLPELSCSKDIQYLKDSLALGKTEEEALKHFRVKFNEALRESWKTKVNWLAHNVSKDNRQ
Chain of GST-tagged PIK3Cδ in complex with PIK3R1 (P27986 whole entry partner): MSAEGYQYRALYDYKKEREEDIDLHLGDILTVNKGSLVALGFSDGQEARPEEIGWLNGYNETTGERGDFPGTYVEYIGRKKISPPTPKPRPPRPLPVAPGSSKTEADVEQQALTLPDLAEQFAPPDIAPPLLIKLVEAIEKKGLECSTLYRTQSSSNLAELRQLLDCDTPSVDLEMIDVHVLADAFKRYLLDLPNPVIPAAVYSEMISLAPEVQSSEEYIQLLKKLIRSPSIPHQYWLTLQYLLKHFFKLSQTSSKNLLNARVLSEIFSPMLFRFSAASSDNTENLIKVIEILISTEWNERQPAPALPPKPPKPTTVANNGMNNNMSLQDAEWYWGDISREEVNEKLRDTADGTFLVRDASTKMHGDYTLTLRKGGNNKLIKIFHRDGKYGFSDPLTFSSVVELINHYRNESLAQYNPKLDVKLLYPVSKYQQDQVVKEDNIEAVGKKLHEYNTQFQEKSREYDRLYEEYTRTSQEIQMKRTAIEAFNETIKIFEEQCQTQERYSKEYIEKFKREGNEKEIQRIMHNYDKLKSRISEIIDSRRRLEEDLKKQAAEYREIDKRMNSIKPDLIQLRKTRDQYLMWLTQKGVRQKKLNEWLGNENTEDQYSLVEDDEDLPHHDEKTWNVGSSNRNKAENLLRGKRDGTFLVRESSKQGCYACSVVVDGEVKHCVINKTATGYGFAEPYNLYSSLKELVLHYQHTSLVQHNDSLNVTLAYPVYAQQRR

For orientation: pIC50 means −log10 of the IC50, conventionally taken in molar units. Consider `COc1cc(Cl)ccc1C(O)CCNC(=O)c1c(C)ccc(-c2ccn3nc(N)nc3c2)c1F` (single isomer, unassigned) [Example 65, 3-(2-amino-[1,2,4]triazolo[1,5-a]pyridin-7-yl)-N-(3-(4-chloro-2-methoxyphenyl)-3-hydroxypropyl)-2-fluoro-6-methylbenzamide], for which the pIC50 in assay [1] was less than 4.82; in assay [2] (setting [4]) it was 7.57; in assay [3] it was 7.55.

Turning to `Cc1ccc(-c2ccn3nc(N)nc3c2)c(F)c1C(=O)NC(C)CC(O)c1ccc(F)cc1` (single isomer, unassigned) [Example 36, 3-(2-amino-[1,2,4]triazolo[1,5-a]pyridin-7-yl)-2-fluoro-N-(4-(4-fluorophenyl)-4-hydroxybutan-2-yl)-6-methylbenzamide], the pIC50 in assay [1] was less than 4.82; in assay [2] (setting [5]), 8.57; in assay [3], 8.35.

`Cc1ccc(-c2ccn3nc(N)nc3c2)c(F)c1C(=O)NCC(F)(F)[C@H](O)c1ccc(F)cc1` (single isomer, unassigned) [Example 31]: the pIC50 in assay [1] was less than 4.82; in assay [2] (setting [4]), 9.10; in assay [3] it was 8.62.

For the compound `Cc1cc(F)c(-c2ccn3nc(N)nc3c2)cc1C(=O)NCCC(O)c1ccc(Cl)cn1` (single isomer, unassigned) [Example 6, 5-(2-amino-[1,2,4]triazolo[1,5-a]pyridin-7-yl)-N-(3-(5-chloropyridin-2-yl)-3-hydroxypropyl)-4-fluoro-2-methylbenzamide], the pIC50 is less than 4.82 in assay [1], 8.64 in assay [2] (setting [5]) and 8.24 in assay [3].

As for `Cc1ccc(-c2ccn3nc(N)nc3c2)c(F)c1C(=O)NCCC(C)(C)c1ccccc1` [Example 58, 3-(2-amino-[1,2,4]triazolo[1,5-a]pyridin-7-yl)-2-fluoro-6-methyl-N-(3-methyl-3-phenylbutyl)benzamide], the pIC50 in assay [1] was less than 4.82; in assay [2] (setting [4]), 8.64; in assay [3] it was 8.68.

In the case of `Cc1c(F)cc(-c2ccn3nc(N)nc3c2)cc1C(=O)NCC(F)(F)C(O)c1ccc(F)cc1` (single isomer, unassigned) [Example 231, 5-(2-amino-[1,2,4]triazolo[1,5-a]pyridin-7-yl)-N-(2,2-difluoro-3-(4-fluorophenyl)-3-hydroxypropyl)-3-fluoro-2-methylbenzamide], the pIC50 in assay [1] is less than 4.82; in assay [2] (setting [5]), 8.92; in assay [3], 8.70.

On to `Cc1ccc(-c2ccn3nc(N)nc3c2)c(F)c1C(=O)NC(CF)CC(O)c1ccc(F)cc1` (single isomer, unassigned) [Example 25, 3-(2-amino-[1,2,4]triazolo[1,5-a]pyridin-7-yl)-2-fluoro-N-(1-fluoro-4-(4-fluorophenyl)-4-hydroxybutan-2-yl)-6-methylbenzamide], for which the pIC50 in assay [1] was less than 4.82; in assay [2] (setting [5]) it was 8.39; in assay [3], 8.44.

Take `Cc1ccc(-c2ccn3nc(N)nc3c2F)c(F)c1C(=O)NCC[C@H](O)c1ccc(Cl)cc1` [Example 132, (S)-3-(2-amino-8-fluoro-[1,2,4]triazolo[1,5-a]pyridin-7-yl)-N-(3-(4-chlorophenyl)-3-hydroxypropyl)-2-fluoro-6-methylbenzamide]: the figures for the pIC50 in assay [1], in assay [2] (setting [4]) and in assay [3] were less than 4.82, 8.96 and 8.08, respectively.

In the case of `[2H]C([2H])(CC([2H])(O)c1ccc(Cl)cc1)NC(=O)c1c(C)ccc(-c2ccn3nc(N)nc3c2)c1F` (racemic) [Example 14, 3-(2-amino-[1,2,4]triazolo[1,5-a]pyridin-7-yl)-N-(3-(4-chlorophenyl)-3-hydroxypropyl-1,1,3-d3)-2-fluoro-6-methylbenzamide], the pIC50 was less than 4.82 in assay [1], 8.96 in assay [2] (setting [4]) and 8.96 in assay [3].

Take `Cc1ccc(-c2ccn3nc(N)nc3c2)c(F)c1C(=O)NC(CF)CC(O)c1ccc(F)cc1` (single isomer, unassigned) [Example 27, 3-(2-amino-[1,2,4]triazolo[1,5-a]pyridin-7-yl)-2-fluoro-N-(1-fluoro-4-(4-fluorophenyl)-4-hydroxybutan-2-yl)-6-methylbenzamide]: the pIC50 in assay [1] was less than 4.82; in assay [2] (setting [5]), 6.70; in assay [3] it was 7.22.

Take `Nc1nc2cc(-c3ccc(Cl)c(C(=O)NC[C@H](F)[C@@H](O)c4ccc(F)cc4)c3F)ccn2n1` (single isomer, unassigned) [Example 296]: the results for the pIC50 in assay [1], in assay [2] (setting [4]) and in assay [3] were 5.00, 7.66 and 7.82, respectively.

With `CC(O)(c1ccc(Cl)cc1)C(F)(F)CNC(=O)c1c(Cl)ccc(-c2ccn3nc(N)nc3c2)c1F` (single isomer, unassigned) [Example 224, 3-(2-amino-[1,2,4]triazolo[1,5-a]pyridin-7-yl)-6-chloro-N-(3-(4-chlorophenyl)-2,2-difluoro-3-hydroxybutyl)-2-fluorobenzamide], the pIC50 is less than 4.82 in assay [1], 8.39 in assay [2] (setting [5]) and 8.28 in assay [3].

With `CCc1ccc(-c2ccn3nc(N)nc3c2)c(F)c1C(=O)NCC(F)(F)C(O)c1ccc(F)cn1` (single isomer, unassigned) [Example 266, 3-(2-amino-[1,2,4]triazolo[1,5-a]pyridin-7-yl)-N-(2,2-difluoro-3-(5-fluoropyridin-2-yl)-3-hydroxypropyl)-6-ethyl-2-fluorobenzamide], the pIC50 was less than 4.82 in assay [1], 8.62 in assay [2] (setting [4]) and 7.89 in assay [3].

On to `Cc1ccc(-c2ccn3nc(N)nc3c2)c(F)c1C(=O)NC(C)CC(O)c1ccc(F)cc1` (single isomer, unassigned) [Example 39, 3-(2-amino-[1,2,4]triazolo[1,5-a]pyridin-7-yl)-2-fluoro-N-(4-(4-fluorophenyl)-4-hydroxybutan-2-yl)-6-methylbenzamide], for which the pIC50 was less than 4.82 in assay [1], 6.40 in assay [2] (setting [5]) and 6.79 in assay [3].

As to `Cc1ccc(-c2ccn3nc(N)nc3c2)c(F)c1C(=O)NCCC(O)c1ccc(F)cc1` (single isomer, unassigned) [Example 51, 3-(2-amino-[1,2,4]triazolo[1,5-a]pyridin-7-yl)-2-fluoro-N-(3-(4-fluorophenyl)-3-hydroxypropyl)-6-methylbenzamide], the values for the pIC50 in assay [1], in assay [2] (setting [5]) and in assay [3] were less than 4.82, 8.74 and 8.43, respectively.

As to `Cc1ccc(-c2ccn3nc(N)nc3c2)c(F)c1C(=O)NCCC(c1ccccc1)C(F)(F)F` (single isomer, unassigned) [Example 12, 3-(2-amino-[1,2,4]triazolo[1,5-a]pyridin-7-yl)-2-fluoro-6-methyl-N-(4,4,4-trifluoro-3-phenylbutyl)benzamide], the pIC50 in assay [1] is less than 4.82; in assay [2] (setting [5]), 8.04; in assay [3] it was 8.52.

For `Nc1nc2cc(-c3ccc(Cl)c(C(=O)NCC(F)C(O)c4ccc(F)cc4)c3F)ccn2n1` (stereo not drawn) [Example 130, 3-(2-amino-[1,2,4]triazolo[1,5-a]pyridin-7-yl)-6-chloro-2-fluoro-N-(2-fluoro-3-(4-fluorophenyl)-3-hydroxypropyl)benzamide enantiomeric mixture 1], the pIC50 is 5.31 in assay [1], 8.54 in assay [2] (setting [4]) and 8.13 in assay [3].

For the compound `Cc1ccc(-c2ccn3nc(N)nc3c2)c(F)c1C(=O)NCC(F)(F)C(O)c1ccc(F)cn1` (stereo not drawn) [Example 269, 3-{2-amino-[1,2,4]triazolo[1,5-a]pyridin-7-yl}-N-[2,2-difluoro-3-(5-fluoropyridin-2-yl)-3-hydroxypropyl]-2-fluoro-6-methylbenzamide], the pIC50 in assay [1] was less than 4.82; in assay [2] (setting [5]) it was 8.82; in assay [3] it was 8.34.

On to `Cc1cc(F)c(-c2ccn3nc(N)nc3c2)c(F)c1C(=O)NCC[C@H](O)c1ccc(Cl)cc1` [Example 277, (S)-3-(2-amino-[1,2,4]triazolo[1,5-a]pyridin-7-yl)-N-(3-(4-chlorophenyl)-3-hydroxypropyl)-2,4-difluoro-6-methylbenzamide], for which the pIC50 in assay [1] is less than 4.82; in assay [2] (setting [4]) it was 7.16; in assay [3], 7.44.

For `C#Cc1ccc([C@@H](O)CCNC(=O)c2c(C)ccc(-c3ccn4nc(N)nc4c3)c2F)cc1` [Example 142, 3-{2-amino-[1,2,4]triazolo[1,5-a]pyridin-7-yl}-N-[(3S)-3-(4-ethynylphenyl)-3-hydroxypropyl]-2-fluoro-6-methylbenzamide], the pIC50 is less than 4.82 in assay [1], 8.60 in assay [2] (setting [4]) and 8.48 in assay [3].

As for `Nc1nc2cc(-c3ccc(CF)c(C(=O)NCC(F)(F)[C@@H](O)c4ccc(F)cc4)c3F)ccn2n1` [Example 294, (S)-3-(2-amino-[1,2,4]triazolo[1,5-a]pyridin-7-yl)-N-(2,2-difluoro-3-(4-fluorophenyl)-3-hydroxypropyl)-2-fluoro-6-(fluoromethyl)benzamide], the pIC50 in assay [1] was less than 4.82; in assay [2] (setting [4]) it was 8.72; in assay [3], 8.72.
